{
  "source": "patent US20250213566A1",
  "about": "“PHARMACEUTICAL COMPOSITION FOR PREVENTING OR TREATING SKIN DISEASES CAUSED BY RADIATION IRRADIATION COMPRISING DARAPLADIB OR PHARMACEUTICALLY ACCEPTABLE SALT THEREOF AS ACTIVE INGREDIENT” (KOREA INSTITUTE OF RADIOLOGICAL & MEDICAL SCIENCES, priority 2022, published 2025)",
  "key": {"human fibroblasts": {"system": "human fibroblasts", "test": "TGF-β-induced differentiation from fibroblasts to myofibroblasts, immunofluorescence staining of collagen", "assay_type": "cell-based", "settings": "TGF-β treated fibroblasts; darapladib 0.25 nM and 0.5 nM applied 1 hour before TGF-β; vs TGF-β treated group; FIG. 1", "experimental": "To identify the effect of darapladib on suppression of differentiation from fibroblasts to myofibroblasts, used was a transforming growth factor-beta (TGF-β), a growth factor that induces differentiation from human fibroblasts to myofibroblasts. Darapladib was applied to the medium at low concentration (0.25 nM) and high concentration (0.5 nM) respectively 1 hour before TGF-β treatment and then fixed with 4% formaldehyde in a live state in a single-layer culture of fibroblasts, and immunofluorescence staining of collagen was performed, followed by visualization by confocal microscopy."}, "SKH-1 hairless mice [1]": {"system": "SKH-1 hairless mice", "test": "Radiation-induced skin damage in SKH-1 hairless mice, appearance of skin", "assay_type": "in vivo", "settings": "day 20 after irradiation, FIG. 3", "experimental": "(§1) In order to identify the effect of darapladib in improving radiation-induced skin damage, SKH-1 hairless mice, which has the most similar characteristics to the human skin layer, immune system, and vascular system, was used, and for the irradiated group, local irradiation was performed on the skin in a total of 40 Gy by irradiating two times by 20 Gy at intervals of 5 days. Darapladib was used to suppress radiation-induced skin damage, and subcutaneous injections were given at different concentrations (20 mg/kg and 40 mg/kg)."}, "SKH-1 hairless mice [2]": {"system": "SKH-1 hairless mice", "test": "Skin moisture content (Corneometer), moisture loss (Tewameter) and skin pH after irradiation", "assay_type": "in vivo", "settings": "40 Gy local irradiation; day 20 after irradiation; skin pH meter; FIG. 4", "experimental": "as §1, with “mg/kg). In addition, in order to quantitatively observe the effect of darapladib in inhibiting radiation-induced skin damage, the moisture content, moisture loss, and pH level of the skin were measured on day 20 after irradiation. The moisture content in the skin was measured using Corneometer (Corneometer CM825, CK electronic GmbH, Germany), the moisture loss by Tewameter (TM300, CK electronic GmbH, Germany), and the pH level of the skin by a skin pH meter (pH905, CK electronic GmbH, Germany).” for “mg/kg).”"}, "SKH-1 hairless mice [3]": {"system": "SKH-1 hairless mice", "test": "Histological changes in irradiated skin, hematoxylin and eosin staining, Image J quantification of adipocytes", "assay_type": "in vivo", "experimental": "In order to identify the effect of darapladib in improving radiation-induced skin damage, SKH-1 hairless mice, which has the most similar characteristics to the human skin layer, immune system, and vascular system, was used, and for the irradiated group, local irradiation was performed on the skin in a total of 40 Gy by irradiating two times by 20 Gy at intervals of 5 days. Darapladib was used to suppress radiation-induced skin damage, and subcutaneous injections were given at different concentrations (20 mg/kg and 40 mg/kg). In addition, in order to observe the histological changes in the skin, the extracted tissues were embedded by undergoing a paraffin infiltration process, a 4 μm thinned section was prepared to undergo deparaffinization and hydration followed by staining with hematoxylin and eosin, and then tissue damage, blood vessel damage, and changes in the epidermis, dermis, and adipocyte layer of skin tissue were observed using an optical microscope. In addition, to quantify the degree of skin damage, the area and number of granules in which adipocytes are present were calculated and statistically analyzed using the Image J program."}, "collagen": {"system": "collagen", "test": "Masson's trichrome staining of irradiated skin (collagen deposition)", "assay_type": "in vivo, mice", "settings": "day 20 after irradiation, IR/Dara group, FIG. 6", "experimental": "as §1"}, "α-SMA": {"system": "α-SMA", "test": "α-SMA expression in irradiated skin by IHC staining, immunofluorescence and Western blot", "assay_type": "in vivo, mice", "settings": "FIG. 7", "experimental": "as §1"}, "vimentin": {"system": "vimentin", "test": "Vimentin expression in irradiated skin by immunohistochemistry", "assay_type": "in vivo, mice", "settings": "FIG. 8", "experimental": "as §1, with “mg/kg). In addition, to identify the effect of darapladib on vimentin, which is another marker of fibrosis and applicable to immune diseases, immunohistochemistry (IHC) method was applied to stain the surface of the skin.” for “mg/kg).”"}, "[4]": {"settings": "irradiated skin sections, H&E, Dara+IR group, FIG. 5A"}},
  "data": [
    {"smiles": "CCN(CC)CCN(Cc1ccc(-c2ccc(C(F)(F)F)cc2)cc1)C(=O)Cn1c(SCc2ccc(F)cc2)nc(=O)c2c1CCC2", "note": "[darapladib]", "values": [
      {"measurement": "expression of collagen", "setting": "human fibroblasts", "value": "decreased significantly"},
      {"measurement": "fibrosis (chronic thickening of skin surface, red wounds, inflammation)", "setting": "SKH-1 hairless mice [1]; 40 Gy local irradiation (2 x 20 Gy), subcutaneous 20 mg/kg and 40 mg/kg, vs irradiated group", "value": "remarkably reduced"},
      {"measurement": "recovery of irradiated skin", "setting": "SKH-1 hairless mice [1]; 40 Gy local irradiation, subcutaneous 40 mg/kg (high concentration)", "value": "recovery similar to that of the control group without irradiation"},
      {"measurement": "skin pH", "setting": "SKH-1 hairless mice [2]", "value": "remained slightly acidic"},
      {"measurement": "adipocyte granules", "setting": "SKH-1 hairless mice [3]; [4]", "value": "retained"},
      {"measurement": "thickness of the epidermis and dermis of the skin", "setting": "SKH-1 hairless mice [3]; [4]", "value": "restored similar to the control group"},
      {"measurement": "area of adipocytes", "setting": "SKH-1 hairless mice [3]; irradiated skin, Image J, FIGS. 5B and 5C", "value": "significantly recovered"},
      {"measurement": "collagen fiber or thickness of the skin layer", "setting": "collagen", "value": "restored to a level of the control group"},
      {"measurement": "expression of α-SMA", "setting": "α-SMA; IR/Dara group vs irradiated group", "value": "reduced expression of α-SMA compared to the irradiated group"},
      {"measurement": "expression of α-SMA", "setting": "α-SMA; high concentration, 40 mg/kg", "value": "expression level similar to that of the control group"},
      {"measurement": "vimentin expression", "setting": "vimentin; IR/Dara group", "value": "decreased"},
      {"measurement": "vimentin expression", "setting": "vimentin; high concentration, 40 mg/kg", "value": "similarly to the control group"}
    ]}
  ]
}
